These results are taken from patent US9884048B2, “ERK inhibitors” (Merck Sharp & Dohme Corp., priority 2014, dated 2018).

Molecules are shown by their SMILES.

For orientation: IC50 means the point on the concentration scale where inhibition reaches its midpoint.

Sequence of phosphorylated active hERK2 enzyme (P28482 whole entry): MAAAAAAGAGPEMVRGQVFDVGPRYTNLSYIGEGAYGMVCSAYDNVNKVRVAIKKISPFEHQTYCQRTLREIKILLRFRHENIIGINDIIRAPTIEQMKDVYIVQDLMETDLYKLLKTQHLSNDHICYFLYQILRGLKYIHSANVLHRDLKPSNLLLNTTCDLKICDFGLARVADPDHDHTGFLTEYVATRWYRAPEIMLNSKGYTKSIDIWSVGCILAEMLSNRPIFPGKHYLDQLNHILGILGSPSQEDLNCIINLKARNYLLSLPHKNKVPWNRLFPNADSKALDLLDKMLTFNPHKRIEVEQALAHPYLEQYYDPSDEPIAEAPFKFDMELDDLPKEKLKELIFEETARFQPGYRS

The first experiment concerns the target phosphorylated active hERK2 enzyme (Homo sapiens (Human), UniProt P28482).
Settings: not given
`Cc1cc(-n2ncc3cc(NC(=O)N[C@H]4CCC[C@H]4c4ccccc4)ncc32)ccn1` (racemic) [Example 148, Racemic 1-[1-(2-methylpyridin-4-yl)-1H-pyrazolo[3,4-c]pyridin-5-yl]-3-[(1S,2S) and (1R, 2R)-2-phenylcyclopentyl]urea] registered an IC50 of 7.93 nM.

As for `Cc1cc(-n2ncc3cc(NC(=O)N[C@H]4CCC[C@@H]4Oc4ccc(F)cc4)ncc32)ccn1` (racemic) [Example 166, Racemic trans 1-[(1S,2S) and (1R,2R)-2-(4-fluorophenoxy)cyclopentyl]-3-[1-(2-methylpyridin-4-yl)-1H-pyrazolo[3,4-c]-pyridin-5-yl)urea], it took 66.6 nM to reach half-maximal inhibition (IC50).

Staying with this experiment, now noted: ERK2 IC50, IMAP-FP assay; 0.5 nM hERK2, 30 μM ATP; 10 point titration, 3 μM starting concentration.
On to `Cc1cc(-n2ncc3cc(NC(=O)N[C@H]4CCCC[C@@H]4c4ccccc4)ncc32)ccn1` (racemic) [Example 169, Racemic trans 1-[1-(2-methylpyridin-4-yl)-1H-pyrazolo[3,4-c]pyridin-5-yl]-3-[(1S,2R) and (1R,2S)-2-phenylcyclohexyl]urea], for which the midpoint of inhibition, the IC50, lay at 65.7 nM.

Still in this experiment, the particulars now being: read-out: ERK2 IC50; IMAP-FP assay; 0.5 nM hERK2, 30 μM ATP; 10 point titration, 3 μM starting concentration.
For the compound `C[C@@H](NC(=O)Nc1cc2cnn(-c3ccc(F)cc3)c2c(CN(C)C)n1)c1ccccc1` [Example 243, 1-{7-[(dimethylamino)methyl]-1-(4-fluorophenyl)-1H-pyrazolo[3,4-c]pyridin-5-yl}-3-[(1R)-1-phenylethyl]urea], the IC50 is 1580 nM.

Regarding `Cc1cc(-n2ncc3cc(NC(=O)NCCC(F)(F)F)ncc32)ccn1` [Example 88, 1-[1-(2-methylpyridin-4-yl)-1H-pyrazolo[3,4-c]pyridin-5-yl]-3-(3,3,3-trifluoropropyl)urea], the IC50 was found to be 46.3 nM.

In the case of `Cc1cc(-n2ncc3cc(NC(=O)NCC4(F)CNC4)ncc32)ccn1` [Example 287, 1-[(3-fluoroazetidin-3-yl)methyl]-3-[1-(2-methylpyridin-4-yl)-1H-pyrazolo[3,4-c]pyridin-5-yl]urea], the IC50 was found to be 43.2 nM.

With `Cc1cc(-n2ncc3cc(NC(=O)N[C@H]4CN(C5CCC5)C[C@@H]4c4ccccc4)ncc32)ccn1` [Example 195, 1-[(3R,4S)-1-cyclobutyl-4-phenylpyrrolidin-3-yl]-3-[1-(2-methylpyridin-4-yl)-1H-pyrazolo[3,4-c]pyridin-5-yl]urea], the IC50 was 3.6 nM.

Take `Cc1cc(-n2ncc3cc(NC(=O)N[C@H]4CN(C(C)C)C[C@@H]4c4ccccc4)ncc32)ccn1` [Example 198, 1-[(3R,4S)-1-(1-methylethyl)-4-phenylpyrrolidin-3-yl]-3-[1-(2-methylpyridin-4-yl)-1H-pyrazolo[3,4-c]pyridin-5-yl]urea]: the IC50 worked out at 2.64 nM.

In the case of `Cc1cc(-n2ncc3cc(NC(=O)NC4CNC(c5ccccc5)C4)ncc32)ccn1` (stereo not drawn) [Example 67, 1-[1-(2-methylpyridin-4-yl)-1H-pyrazolo[3,4-c]pyridin-5-yl]-3-(5-phenylpyrrolidin-3-yl)urea], the IC50 turned out to be 200 nM.

As for `Cc1cc(-n2ncc3cc(NC(=O)NC[C@@H]4CCNC4)ncc32)ccn1` [Example 286, 1-[1-(2-methylpyridin-4-yl)-1H-pyrazolo[3,4-c]pyridin-5-yl]-3-[(3R)-pyrrolidin-3-ylmethyl]urea], the IC50 worked out at 23.4 nM.

Take `Cc1cc(-n2ncc3cc(NC(=O)N[C@H](C)c4ccccc4)nc(CNCCN(C)C)c32)ccn1` [Example 322, 1-[7-({[2-(dimethylamino)ethyl]amino}methyl)-1-(2-methylpyridin-4-yl)-1H-pyrazolo[3,4-c]pyridin-5-yl]-3-[(1R)-1-phenylethyl]urea]: the IC50 stood at 86.6 nM.

`Cc1cc(-n2ncc3cc(NC(=O)NCc4ccc(-n5cccn5)cc4)ncc32)ccn1` [Example 76, 1-[1-(2-methylpyridin-4-yl)-1H-pyrazolo[3,4-c]pyridin-5-yl]-3-[4-(1H-pyrazol-1-yl)benzyl]urea]: the IC50 was determined as 1110 nM.

With `C[C@@H](NC(=O)Nc1cc2cnn(C3CCOCC3)c2c(CO)n1)c1ccccc1` [Example 316, 1-[7-(hydroxymethyl)-1-(tetra-hydro-2H-pyran-4-yl)-1H-pyra-- zolo[3,4-c]pyridin-5-yl]-3-[(1R)-1-phenylethyl]urea], the IC50 was 236 nM.

As for `C[C@@H](NC(=O)Nc1cc2cnn(C3CCNC(=O)C3)c2cn1)c1ccc(F)cc1` (stereo partly drawn) [Example 233, 1-[(1R)-1-(4-fluorophenyl)ethyl]-3-[1-(2-oxopiperidin-4-yl)-1H-pyrazolo[3,4-c]pyridin-5-yl]urea], the IC50 worked out at 1220 nM.

For the compound `C[C@H](NC(=O)Nc1cc2cnn(-c3ccc(F)cc3)c2cn1)c1ccccn1` [Example 221, 1-[1-(4-fluorophenyl)-1H-pyrazolo[3,4-c]pyridin-5-yl]-3-[(1S)-1-pyridin-2-ylethyl]urea], the IC50 amounted to 1790 nM.

For the compound `Cc1cc(-n2ncc3cc(NC(=O)NC(C)c4csc(C)n4)ncc32)ccn1` (stereo not drawn) [Example 128, 1-[1-(2-methylpyridin-4-yl)-1H-pyrazolo[3,4-c]pyridin-5-yl]-3-[1-(2-methyl-1,3-thiazol-4-yl)ethyl]urea], the concentration for half-maximal inhibition (IC50) is 2030 nM.

Turning to `Cc1cc(-n2ncc3cc(NC(=O)NC4CCCN(Cc5cccnc5)C4)ncc32)ccn1` (stereo not drawn) [Example 265], the IC50 came to 115 nM.

For the compound `Cc1cc(-n2ncc3cc(NC(=O)N[C@H](C)c4ccccc4)nc(CO)c32)ccn1` [Example 300, 1-[7-(Hydroxymethyl)-1-(2-methylpyridin-4-yl)-1H-pyrazolo[3,4-c]pyridin-5-yl]-3-[(1R)-1-phenylethyl]urea], the IC50 was found to be 10.3 nM.

Regarding `Cc1cc(-n2ncc3cc(NC(=O)NC4CCCN(Cc5cccnc5Cl)C4)ncc32)ccn1` (stereo not drawn) [Example 268, 1-{1-[(2-chloropyridin-3-yl)methyl]piperidin-3-yl}-3-[1-(2-methylpyridin-4-yl)-1H-pyrazolo[3,4-c]pyridin-5-yl]urea], the IC50 was determined as 18.6 nM.

Consider `Cc1cc(-n2ncc3cc(NC(=O)N[C@H]4CN(C)C[C@@H]4C4CC4)ncc32)ccn1` [Example 30, 1-[(3R,4S)-4-cyclopropyl-1-methylpyrrolidin-3-yl]-3-[1-(2-methylpyridin-4-yl)-1H-pyrazolo[3,4-c]pyridin-5-yl]urea], for which the IC50 came out at 110 nM.

Take `Cc1cncc(-n2ncc3cc(NC(=O)N[C@H](C)c4ccccc4)ncc32)n1` [Example 211, 1-[1-(6-methylpyrazin-2-yl)-1H-pyrazolo[3,4-c]pyridin-5-yl]-3-[(1R)-1-phenylethyl]urea]: the IC50 was determined as 549 nM.

For the compound `CO[C@H]1CCC[C@@H]1NC(=O)Nc1cc2cnn(-c3ccnc(C)c3)c2cn1` [Example 140, 1-[(1S,2S)-2-methoxycyclopentyl]-3-[1-(2-methylpyridin-4-yl)-1H-pyrazolo[3,4-c]pyridin-5-yl)urea], the IC50 amounted to 72.1 nM.

Consider `Cc1cc(-n2ncc3cc(NC(=O)NCC4CN(c5ccccc5)CCO4)ncc32)ccn1` (stereo not drawn) [Example 79, 1-[1-(2-methylpyridin-4-yl)-1H-pyrazolo[3,4-c]pyridin-5-yl]-3-[(4-phenylmorpholin-2-yl)methyl]urea], for which the IC50 stood at 26.5 nM.

`Cc1cc(-n2ncc3cc(NC(=O)N[C@H](CN4CCOCC4)c4ccccc4)ncc32)ccn1` [Example 127, 1-[1-(2-methylpyridin-4-yl)-1H-pyrazolo[3,4-c]pyridin-5-yl]-3-[(1S)-2-morpholin-4-yl-1-phenylethyl]urea]: the IC50 came out at 152 nM.

Take `Cc1cc(-n2ncc3cc(NC(=O)NC45CC6CC(CC(O)(C6)C4)C5)ncc32)ccn1` [Example 77, 1-(3-hydroxytricyclo[3.3.1.1~3,7~]dec-1-yl)-3-[1-(2-methylpyridin-4-yl)-1H-pyrazolo[3,4-c]pyridin-5-yl)urea]: the IC50 came out at 1880 nM.

`Cc1cc(-n2ncc3cc(NC(=O)N[C@H](C)c4ccccc4)nc(CN4CCOCC4)c32)ccn1` [Example 245, 1-[1-(2-methylpyridin-4-yl)-7-(morpholin-4-ylmethyl)-1H-pyrazolo[3,4-c]pyridin-5-yl]-3-[(1R)-1-phenylethyl]urea]: the IC50 was found to be 832 nM.

`Cc1cc(-n2ncc3cc(NC(=O)N[C@H]4CN(C)C[C@@H]4c4ccccc4C(F)(F)F)ncc32)ccn1` [Example 191, 1-[1-(2-methylpyridin-4-yl)-1H-pyrazolo[3,4-c]pyridin-5-yl]-3-{(3R,4S)-1-methyl-4-[2-(trifluoromethyl)-phenyl]pyrrolidin-3-yl}urea]: the IC50 is 0.509 nM.

For the compound `Cc1cc(-n2ncc3cc(NC(=O)NC(C)(C)c4ccccc4)ncc32)ccn1` [Example 122, 1-(1-methyl-1-phenylethyl)-3-[1-(2-methylpyridin-4-yl)-1H-pyrazolo[3,4-c]pyridin-5-yl]urea], the IC50 stood at 56.8 nM.

Turning to `C[C@@H](NC(=O)Nc1cc2cnn(-c3ccc(F)cc3)c2cn1)c1ccccn1` [Example 222, 1-[1-(4-fluorophenyl)-1H-pyrazolo[3,4-c]pyridin-5-yl]-3-[(1R)-1-pyridin-2-ylethyl]urea], the half-inhibitory concentration (IC50) came out at 7.53 nM.

As for `Cc1cc(-n2ncc3cc(NC(=O)N[C@H]4CN(C)C[C@@H]4c4ccccc4)ncc32)ccn1` [Example 182, 1-((3R,4S)1-methyl-4-phenyl-pyrrolidin-3-yl)-3-[1-(2-methyl-pyridin-4-yl)-1H-pyrazolo[3,4-c]pyridin-5-yl]urea], the IC50 amounted to 59.7 nM.

Turning to `COC[C@H](NC(=O)Nc1cc2cnn(-c3ccnc(C)c3)c2cn1)c1ccccn1` [Example 209, 1-[(1R)-2-methoxy-1-pyridin-2-ylethyl]-3-[1-(2-methylpyridin-4-yl)-1H-pyrazolo[3,4-c]pyridin-5-yl]urea], the IC50 was 24.5 nM.

Regarding `Cc1cc(-n2ncc3cc(NC(=O)N[C@H]4[C@H](c5ccccc5C)CN(C)[C@H]4C)ncc32)ccn1` [Example 101, 1-[(2S,3S,4R)-1,2-dimethyl-4-(2-methylphenyl)-pyrrolidin-3-yl]-3-[1-(2-methylpyridin-4-yl)-1H-pyrazolo[3,4-c]pyridin-5-yl)urea], the IC50 came out at 0.5 nM.

On to `Cc1cc(-n2ncc3cc(NC(=O)NC4CCCC(c5ccccc5)C4)ncc32)ccn1` (stereo not drawn) [Example 171, 1-[1-(2-methylpyridin-4-yl)-1H-pyrazolo[3,4-c]pyridin-5-yl]-3-(3-phenyl-cyclohexyl)urea], for which the IC50 is 2.85 nM.
